In patent US20260345621A1, “GABAA RECEPTOR MODULATORS AND USES THEREOF” (Engrail Therapeutics, Inc., priority 2022, published 2026):
“Also recorded” adds a separate entry of the source.

What was measured:
[1] = phase II trial terminated; long term dosing studies; cited from earlier work
EEG spectral bands = test: Pharmaco-EEG spectral analysis in wirelessly implanted rats
sleep stages = test: Sleep-stage analysis in wirelessly implanted rats; conditions: Lorazepam 1 mg/kg IP
[2] = test system: anxiety (elevated plus maze); test: Elevated plus maze (EPM); conditions: oral
[3] = Frontal-Parietal cortex, Quiet Wake

Compound: CCn1ncnc1COc1nn2c(-c3ccccc3F)nnc2cc1C(C)(C)C [7-(1,1-dimethylethyl)-6-(2-ethyl-2H-1,2,4-triazol-3-ylmethoxy)-3-(2-fluorophenyl)-1,2,4-triazolo[4,3-b]pyridazine]
- toxicity [1]: terminated due to toxicity in long term dosing studies

Compound: O=C1Nc2ccc(Cl)cc2C(c2ccccc2Cl)=NC1O (centres unmarked) [Lorazepam, reference compound]
- EEG spectral power change (EEG spectral bands; Frontal-Frontal cortex, Active and Quiet Wake): increased beta, low and high gamma
- EEG spectral power change (EEG spectral bands; Frontal-Frontal cortex, NREM): decreased theta, alpha, and beta, but increased low gamma
- duration of EEG effects (EEG spectral bands; Frontal-Frontal cortex, NREM, Compound 1 high dose PO, Lorazepam 1 mg/kg IP): 9 h
- EEG spectral power change (EEG spectral bands; Frontal-Frontal cortex, REM): increased beta
- duration of increase in low and high gamma (EEG spectral bands; Frontal-Parietal cortex, NREM): only lasting to two hours post dose
- EEG spectral power change (EEG spectral bands; [3]): decreased theta, increased beta and low and high gamma
- duration of EEG effects (EEG spectral bands; [3]): did not last past four hours post dose
- EEG spectral power change (EEG spectral bands; Frontal-Parietal cortex, REM): increased theta, alpha, beta, and low gamma
- EEG spectral power change (EEG spectral bands; summary, Quiet Wake): increased low & high gamma, decreased delta
- NREM onset (sleep stages; Compound 1 1 mg/kg PO): decreased the latency to NREM onset; also recorded: quicker time to Non-REM onset sleep than Compound 1
- Active Wake (sleep stages; Compound 1 PO): decreased Active Wake
- NREM (sleep stages; Compound 1 PO): increased NREM

Compound: chlordiazepoxide [reference compound]
- effect compared with reference anxiolytic chlordiazepoxide [2]: equivalent
